Source: the supplement of paper PMC10307832

Tests used:
Experiment in all cases: relative viability (nuclei count vs DMSO), 5 days (fraction); higher = more cells survive
[1] = compound: O=C(Nc1cc(C(F)(F)F)cc(C(F)(F)F)c1)c1cc(Cl)ccc1O [IMD-0354] + CS(=O)(=O)CCNCc1ccc(-c2ccc3ncnc(Nc4ccc(OCc5cccc(F)c5)c(Cl)c4)c3c2)o1 [Lapatinib] (partner 2 µM)
Outline: (§1)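 Relative viability divides the nuclei count in treated wells by that in vehicle wells. Lung cancer cell lines were seeded in 1536-well plates, dosed by pin tool the next day, and fixed and stained after 5 days in one step with final 0.05% Triton X-100, 1% formaldehyde and 1 ug/ml Hoechst. Dosing was a single drug or a fixed anchor-drug dose plus five library-drug doses (not always all listed) in √10 steps, and values are medians of duplicate plates imaged at 4×.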

[2] = compound: Cc1cnc(CNC(=O)c2c(=O)c3ccc(N4CCCN(C)CC4)nc3n3c2sc2ccccc23)cn1 [CX-5461] + O=C(c1cc(Cc2n[nH]c(=O)c3ccccc23)ccc1F)N1CCN(C(=O)C2CC2)CC1 [Olaparib] (partner 8 µM)
Outline: as §1

[3] = compound: O=C(Nc1cc(C(F)(F)F)cc(C(F)(F)F)c1)c1cc(Cl)ccc1O [IMD-0354] + CC1(C)CCC(c2ccc(Cl)cc2)=C(CN2CCN(c3ccc(C(=O)NS(=O)(=O)c4ccc(N[C@H](CCN5CCOCC5)CSc5ccccc5)c(S(=O)(=O)C(F)(F)F)c4)cc3)CC2)C1 [Navitoclax] (partner 0.5 µM)
Outline: as §1

[4] = compound: O=C(Nc1cc(C(F)(F)F)cc(C(F)(F)F)c1)c1cc(Cl)ccc1O [IMD-0354] + CC(=O)c1c(C)c2cnc(Nc3ccc(N4CCNCC4)cn3)nc2n(C2CCCC2)c1=O [Palbociclib] (partner 0.5 µM)
Outline: as §1

For UMC-11, the relative viability ([1]; first compound 0.04 µM) was 1.07, the relative viability ([1]; first compound 0.1265 µM) was 0.939 and the relative viability ([1]; first compound 0.4 µM) was 0.622. For the same cell line, the relative viability ([1]; first compound 1.265 µM) was 0.239, the relative viability ([1]; first compound 4 µM) was 0.232 and the relative viability ([2]; first compound 0.01 µM) was 0.323. For the same cell line, the relative viability ([2]; first compound 0.03162 µM) was 0.369, the relative viability ([2]; first compound 0.1 µM) was 0.321 and the relative viability ([2]; first compound 0.3162 µM) was 0.395. The relative viability ([2]; first compound 1 µM) was 0.267, the relative viability ([3]; first compound 0.04 µM) was 0.338 and the relative viability ([3]; first compound 0.1265 µM) was 0.276. The relative viability ([3]; first compound 0.4 µM) was 0.29, the relative viability ([3]; first compound 1.265 µM) was 0.112 and the relative viability ([3]; first compound 4 µM) was 0.149. The relative viability ([4]; first compound 0.04 µM) was 0.344, the relative viability ([4]; first compound 0.1265 µM) was 0.303 and the relative viability ([4]; first compound 0.4 µM) was 0.323. The relative viability ([4]; first compound 1.265 µM) was 0.215 and the relative viability ([4]; first compound 4 µM) was 0.18.
